This note sets out measurements from patent publication US8609635B2, “Fused tricyclic silyl compounds and methods of use thereof for the treatment of viral diseases” (priority 2010, dated 2013).

This data set can be described thus: Pharmacokinetic analysis in rats. It is filed as in vivo, Male Sprague-Dawley rats. The following applies: Rat, dihydrochloride salt, 5 mpk/PO, 2.5 mpk/IV. Here is the method:
Various pharmacokinetic parameters for compound 56 were measured in rats, dogs and monkeys as described below.
Male Sprague-Dawley rats (Charles River, Co.) were pre-cannulated (femoral artery) in order to facilitate precise blood sampling times, to increase throughput and to reduce the stress on the animals caused by serial bleedings. Following an overnight fast, rats were dosed with the dihydrochloride salt of compound 56 orally at 5 mg/kg as a suspension in 0.4% hydroxylpropyl methylcellulose (HPMC) or intravenously at 2.5 mg/kg as a solution in 20% hydroxypropyl-β-cyclodextrin (20% HPβCD). Blood was collected into heparin-containing tubes serially from each animal at 0.25, 0.5, 1, 2, 4, 6, 8, 24 and 48 hr (PO), and 0.167, 0.25, 0.5, 1, 2, 4, 6, 8, 24 and 48 hr (IV) post-dosing and centrifuged to generate plasma. The plasma samples were stored at […] until analysis.
Collected plasma samples were analyzed for the presence of compound 56 using LC-MS/MS as described below.
The HPLC/API-MS/MS system for the example data consisted of a HPLC pumping system and a auto sampler with the sample tray refrigeration option connected directly to a triple quadrupole mass spectrometer with an API source. Typical HPLC methods for the example data was based on a fast gradient of two solvents: solvent A consisted of 0.1% formic acid in water, and solvent B consisted of 0.1% formic acid in acetonitrile. A fast linear gradient (start at 90% A for 0.2 min, ramp to 95% B from 0.2 to 0.5 min, hold at 95% B […], then ramp back to 90% A from 1.0 to 1.1 min, then hold at, […] from 1.1 to 1.2 min) was used. The flow rate for the HPLC system was set to 1 mL/min throughout the HPLC gradient; the HPLC column was a Halo C18 column (2.7 micron particle size, 50×2.1 mm). The example compounds were analyzed by positive ion atmospheric pressure chemical ionization tandem mass spectrometry (APCI-MS/MS). As a general procedure, selected reaction monitoring (SRM) methods were developed for each compound prior to analysis of the plasma samples. Normally, the individual SRM transitions were based on a fragmentation from the protonated molecule ([MH].) to a characteristic product ion.
Using the methods described above, the following pharmacokinetic parameters were calculated in rats, dogs and monkeys and the results are summarized in the table below.

SMILES strings stand for the structures.

`COC(=O)N[C@H](C(=O)N1CC(F)(F)C[C@H]1c1ncc(-c2ccc(-c3ccc4c(ccc5nc([C@@H]6C[Si](C)(C)CN6C(=O)[C@@H](NC(=O)OC)C(C)C)[nH]c54)c3)cc2)[nH]1)C(C)C` [Compound 56]: the “Effective Half-Life” value was 7.6 h, the “Systemic Clearance” value is given as 5.6 mL/min/kg and the “Volume of Distribution” value is 3.7 L/kg. Moreover, the “Oral Bioavailability” value (dose-normalized AUC between PO and IV) was 28%.
